{"source": "patent US6737383B1", "about": "“Herbicidal oxadiazolidines” (priority 1999, dated 2004)", "key": {"[1]": {"system": "Green foxtail", "experiment": "Test D green foxtail", "assay_type": "in vivo", "conditions": "Rate 64 g/ha, Preemergence; 0 to 100 scale, 0 no injury, 100 complete control", "in_short": "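Herbicide screen in the greenhouse. A non-phytotoxic solvent mixture with surfactant carried the test chemical; in pre-emergence tests it went onto the soil of pots seeded no more than a day earlier. Injury was scored by eye 14 to 21 days after application, 0 to 100.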"}, "[2]": {"system": "lambsquarters", "experiment": "Test E lambsquarters", "assay_type": "in vivo, Chenopodium album", "conditions": "Postemergence", "in_short": "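For postemergence, plants at the 1- to 4-leaf stage, in a 60:40 mix of sandy loam and potting mix, treated with compound formulated in a surfactant-containing non-phytotoxic solvent. Visual assessment versus untreated controls followed roughly 21–28 days in the greenhouse.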"}, "[3]": {"system": "ivyleaf speedwell", "experiment": "Test E postemergence ivyleaf speedwell", "assay_type": "in vivo, Veronica hederaefolia", "method": "(§1) Compounds evaluated in this test were formulated in a non-phytotoxic solvent mixture which included a surfactant and applied to plants that were in the 1- to 4-leaf stage (postemergence application). A mixture of sandy loam soil and greenhouse potting mix in a 60:40 ratio was used for the postemergence test.\n(§2) Plantings of these crops and weed species were adjusted to produce plants of appropriate size for the postemergence test. All plant species were grown using normal greenhouse practices. Crop and weed species include annual bluegrass (Poa annua), blackgrass (Alopecurus myosuroides), black nightshade (Solanum nigra), chickweed (Stellaria media), common poppy (Papaver rhoeas), deadnettle (Lamium amplexicaule), downy brome (Bromus tectorum), field violet (Viola arvensis), galium (Galium aparine), green foxtail (Setaria viridis), Italian ryegrass (Lolium multiflorum), jointed goatgrass (Aegilops cylindrica), kochia (Kochia scoparia), lambsquarters (Chenopodium album), littleseed canarygrass (Phalaris minor), rape (Brassica napus), redroot pigweed (Amaranthus retroflexus), Russian thistle (Salsola kali), scentless chamomile (Matricaria inodora), spring barley (Hordeum vulgare), sugar beet (Beta vulgaris), sunflower (Helianthus annuus), ivyleaf speedwell (Veronica hederaefolia), spring wheat (Triticum aestivum), winter wheat (Triticum aestivum), wild buckwheat (Polygonum convolvulus), wild mustard (Sinapis arvensis), wild oat (Avena fatua), windgrass (Apera spica-venti) and winter barley (Hordeum vulgare).\n(§3) Treated plants and untreated controls were maintained in a greenhouse for approximately 21 to 28 days, after which all treated plants were compared to untreated controls and visually evaluated. […] A dash response (-) means no test result."}, "[4]": {"system": "redroot pigweed", "experiment": "Test C postemergence redroot pigweed", "assay_type": "in vivo, Amaranthus retroflexus", "conditions": "0 to 100 scale, 0 no effect, 100 complete control", "in_short": "(§4)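 Soil: sandy loam/potting mix 60:40. Treatment: postemergence, solvent + surfactant formulation. Readout: visual control score 0–100 vs untreated at ~14–21 days.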"}, "[5]": {"system": "galium", "experiment": "Test E galium", "assay_type": "in vivo, Galium aparine", "conditions": "Preemergence"}, "[6]": {"system": "eastern black nightshade", "experiment": "Test C postemergence eastern black nightshade", "assay_type": "in vivo, Solanum ptycanthum", "conditions": "0 to 100 scale, 0 no effect, 100 complete control", "method": "Compounds evaluated in this test were formulated in a non-phytotoxic solvent mixture which included a surfactant and applied to plants that were grown for various periods of time before treatment (postemergence application). A mixture of sandy loam soil and greenhouse potting mix in a 60:40 ratio was used for the postemergence test.\nPlantings of these crops and weed species were adjusted to produce plants of appropriate size for the postemergence test. All plant species were grown using normal greenhouse practices. Crop and weed species include arrowleaf sida (Sida rhombifolia), barnyardgrass (Echinochloa crus-galli), cocklebur (Xanthium strumarium), common ragweed (Ambrosia elatior), corn (Zea mays), cotton (Gossypium hirsutum), eastern black nightshade (Solanum ptycanthum), fall panicum (Panicum dichotomiflorum), field bindweed (Convolvulus arvensis), giant foxtail (Setaria faberii), hairy beggarticks (Bidens pilosa), ivyleaf morningglory (Ipomoea hederacea), johnsongrass (Sorghum halepense), ladysthumb smartweed (Polygonum persicaria), lambsquarters (Chenopodium album), large crabgrass (Digitaria sanguinalis), purple nutsedge (Cyperus rotundus), redroot pigweed (Amaranthus retroflexus), soybean (Glycine max), surinam grass (Brachiaria decumbens), velvetleaf (Abutilon theophrasti) and wild poinsettia (Euphorbia heterophylla).\nTreated plants and untreated controls were maintained in a greenhouse for approximately 14, to 21 days, after which all treated plants were compared to untreated controls and visually evaluated. Plant response ratings, summarized in Table C, were based upon a 0 to 100 scale where 0 was no effect and 100 was complete control. A dash response (−) means no test result."}, "[7]": {"system": "hairy beggarticks", "experiment": "Test C postemergence hairy beggarticks", "assay_type": "in vivo, Bidens pilosa", "conditions": "0 to 100 scale, 0 no effect, 100 complete control", "in_short": "as §4"}, "[8]": {"system": "rape", "experiment": "Test E rape", "assay_type": "in vivo, Brassica napus", "conditions": "Postemergence", "method": "[…] A mixture of sandy loam soil and greenhouse potting mix in a 60:40 ratio was used for the postemergence test.\nas §2, §3"}, "[9]": {"system": "kochia", "experiment": "Test E kochia", "assay_type": "in vivo, Kochia scoparia", "conditions": "Preemergence"}, "[10]": {"system": "jointed goatgrass", "experiment": "Test E jointed goatgrass", "assay_type": "in vivo, Aegilops cylindrica", "conditions": "Preemergence"}, "[11]": {"system": "redroot pigweed", "experiment": "Test E redroot pigweed", "assay_type": "in vivo, Amaranthus retroflexus", "conditions": "Preemergence"}, "[12]": {"system": "jointed goatgrass", "experiment": "Test E jointed goatgrass", "assay_type": "in vivo, Aegilops cylindrica", "conditions": "Postemergence", "method": "as §1, §2, §3"}, "[13]": {"system": "lambsquarters", "experiment": "Test C postemergence lambsquarters", "assay_type": "in vivo, Chenopodium album", "conditions": "0 to 100 scale, 0 no effect, 100 complete control", "in_short": "as §4"}, "[14]": {"system": "wild oat", "experiment": "Test E wild oat", "assay_type": "in vivo, Avena fatua", "conditions": "Postemergence", "method": "as §1, §2, §3"}, "[15]": {"system": "wild buckwheat", "experiment": "Test E wild buckwheat", "assay_type": "in vivo, Polygonum convolvulus", "conditions": "Preemergence"}, "[16]": {"conditions": "Rate 250 g/ha, 0 to 100 scale (0 no effect, 100 complete control)"}, "[17]": {"conditions": "Rate 500 g/ha, 0 to 100 scale, 0 no effect, 100 complete control"}, "[18]": {"conditions": "Rate 125 g/ha, 0 to 100 scale (0 no effect, 100 complete control)"}, "[19]": {"conditions": "Rate 500 g/ha, 0 to 100 scale where 0 is no effect and 100 is complete control"}}, "data": [{"smiles": "C=C(C)Cn1c(=O)on(C(=O)N(c2ccc(F)cc2)C(C)C)c1=O", "note": "[Compound 139]", "values": [{"measurement": "Green foxtail plant response rating", "setting": "[1]", "result": 98}, {"measurement": "Plant response rating, Green foxtail", "setting": "[1]", "result": 98}]}, {"smiles": "CCn1c(=O)on(C(=O)N(c2ccc(F)cc2F)C(C)C)c1=O", "note": "[Compound 116]", "values": [{"measurement": "Plant response rating, Lambsquarters", "setting": "[2]; Rate 62 g/ha, 0 to 100 scale", "result": 20}, {"measurement": "Plant response rating, Lambsquarters", "setting": "[2]; Rate 125 g/ha, 0 to 100 scale", "result": 30}, {"measurement": "Plant response rating, Lambsquarters", "setting": "[2]; [16]", "result": 0}, {"measurement": "Plant response rating, Lambsquarters", "setting": "[2]; [17]", "result": 0}, {"measurement": "Plant response rating, Veronica hedera", "setting": "[3]; Rate 125 g/ha, 0 to 100 scale", "result": 0}, {"measurement": "Plant response rating, Veronica hedera", "setting": "[3]; [16]", "result": 0}, {"measurement": "Plant response rating, Veronica hedera", "setting": "[3]; [17]", "result": 70}, {"measurement": "Plant response rating, Redroot pigweed", "setting": "[4]; Rate 140 g/ha", "result": 0}, {"measurement": "Plant response rating, Redroot pigweed", "setting": "[4]; Rate 280 g/ha", "result": 0}, {"measurement": "Plant response rating, Redroot pigweed", "setting": "[4]; Rate 560 g/ha", "result": 0}, {"measurement": "Plant response rating, Redroot pigweed", "setting": "[4]; Rate 1120 g/ha", "result": 20}, {"measurement": "Plant response rating, Galium", "setting": "[5]; [18]", "result": 100}, {"measurement": "Plant response rating, Galium", "setting": "[5]; Rate 250 g/ha, 0 to 100 scale", "result": 100}, {"measurement": "Plant response rating, Galium", "setting": "[5]; [19]", "result": 100}, {"measurement": "Plant response rating E. blacknightsh", "setting": "[6]; Rate 140 g/ha", "result": 0}, {"measurement": "Plant response rating E. blacknightsh", "setting": "[6]; Rate 280 g/ha", "result": 0}, {"measurement": "Plant response rating E. blacknightsh", "setting": "[6]; Rate 560 g/ha", "result": 10}, {"measurement": "Plant response rating E. blacknightsh", "setting": "[6]; Rate 1120 g/ha", "result": 50}, {"measurement": "Plant response rating H. beggarticks", "setting": "[7]; Rate 140 g/ha", "result": 80}, {"measurement": "Plant response rating H. beggarticks", "setting": "[7]; Rate 560 g/ha", "result": 90}, {"measurement": "Plant response rating, Rape", "setting": "[8]; Rate 62 g/ha, 0 to 100 scale", "result": 10}, {"measurement": "Plant response rating, Rape", "setting": "[8]; Rate 125 g/ha, 0 to 100 scale", "result": 0}, {"measurement": "Plant response rating, Rape", "setting": "[8]; [16]", "result": 0}, {"measurement": "Plant response rating, Rape", "setting": "[8]; [17]", "result": 30}, {"measurement": "Plant response rating, Kochia", "setting": "[9]; [18]", "result": 0}, {"measurement": "Plant response rating, Kochia", "setting": "[9]; Rate 250 g/ha, 0 to 100 scale", "result": 85}, {"measurement": "Plant response rating, Kochia", "setting": "[9]; [19]", "result": 70}, {"measurement": "Plant response rating, Jointed goatgra", "setting": "[10]; [18]", "result": 30}, {"measurement": "Plant response rating, Jointed goatgra", "setting": "[10]; Rate 250 g/ha, 0 to 100 scale", "result": 100}, {"measurement": "Plant response rating, Jointed goatgra", "setting": "[10]; [19]", "result": 65}, {"measurement": "Plant response rating, Redroot pigweed", "setting": "[11]; [18]", "result": 100}, {"measurement": "Plant response rating, Redroot pigweed", "setting": "[11]; Rate 250 g/ha, 0 to 100 scale", "result": 100}, {"measurement": "Plant response rating, Redroot pigweed", "setting": "[11]; [19]", "result": 100}, {"measurement": "Plant response rating, Jointed goatgra", "setting": "[12]; Rate 62 g/ha, 0 to 100 scale", "result": 30}, {"measurement": "Plant response rating, Jointed goatgra", "setting": "[12]; Rate 125 g/ha, 0 to 100 scale", "result": 20}, {"measurement": "Plant response rating, Jointed goatgra", "setting": "[12]; [16]", "result": 40}, {"measurement": "Plant response rating, Jointed goatgra", "setting": "[12]; [17]", "result": 50}, {"measurement": "Plant response rating, Lambsquarters", "setting": "[13]; Rate 140 g/ha", "result": 0}, {"measurement": "Plant response rating, Lambsquarters", "setting": "[13]; Rate 560 g/ha", "result": 0}, {"measurement": "Plant response rating, Lambsquarters", "setting": "[13]; Rate 1120 g/ha", "result": 0}, {"measurement": "Plant response rating, Wild oat", "setting": "[14]; Rate 62 g/ha, 0 to 100 scale", "result": 20}, {"measurement": "Plant response rating, Wild oat", "setting": "[14]; Rate 125 g/ha, 0 to 100 scale", "result": 0}, {"measurement": "Plant response rating, Wild oat", "setting": "[14]; [16]", "result": 30}, {"measurement": "Plant response rating, Wild oat", "setting": "[14]; [17]", "result": 70}, {"measurement": "Plant response rating, Wild buckwheat", "setting": "[15]; [18]", "result": 40}, {"measurement": "Plant response rating, Wild buckwheat", "setting": "[15]; Rate 250 g/ha, 0 to 100 scale", "result": 60}, {"measurement": "Plant response rating, Wild buckwheat", "setting": "[15]; [19]", "result": 95}]}]}
